{"source": "patent US20230266321A1", "about": "“LIVE CELL ENGAGEMENT ASSAY” (Icahn School of Medicine at Mount Sinai, priority 2020, published 2023)", "key": {"[1]": {"molecular_target": "BRAF-MEK1 complex (Homo sapiens, UniProt Q02750)", "conditions": "HCT116 cells, 200 nM, 1 hour"}, "[2]": {"molecular_target": "T1, MEK-NL (Homo sapiens, UniProt Q02750)", "T1 construct": "expressed in transfected cells; host or cells: HEK293T", "assay": "Tracer buildup curves on MEK-NLuc (NanoBRET)", "assay_type": "cell-based", "conditions": "HEK293T cells, 2 hrs at 37° C.; read-out: binding affinity to MEK-NL (tracer buildup curves)", "protocol": "(v) Tram-bo and PD-bo buildup curves measure on MEK-NLuc. A human C-terminal NanoLuc fusion of MEK was transfected as mentioned above at a concentration of […] in combination with […] of carrier DNA. […] A 20x solution was added to each well to give final concentrations of 2, 1, 0.5, 0.1, 0.05, 0.01, 0.001, 0.0001 mM for PD-bo, and 1, 0.1, 0.05, 0.01, 0.005, 0.001, 0.0001, 0.00001 for Tram-bo. […] All data were analyzed using Prism 8 (GraphPad)"}, "[3]": {"tested_on": "luciferase-tagged human KSR1, KSR2, ARAF, BRAF, and CRAF/RAF1", "assay": "RAF family tram-bo buildup curves (NanoBRET)", "assay_type": "cell-based", "conditions": "BRET buildup curves with increasing tracer concentrations", "protocol": "Human c-terminal NanoLuc fusions versions of ARAF (Uniprot P10398), BRAF (UniProt P15056), CRAF (Uniprot P04049), KSR1 (Uniprot Q8IVT5), and KSR2 (Uniprot Q6VAB6) were transfected as mentioned above at a concentration of 0.1 µg/mL in combination with 9.9 µg/mL of carrier DNA. All RAF constructs from Promega. […] A 20x tram-bo solution was added to each well to give final concentrations of 4, 1, 0.5, 0.1, 0.05, 0.01, 0.001, 0.0001 µM. […] All data were analyzed using Prism 8 (GraphPad)."}, "[4]": {"molecular_target": "KSR1-MEK1 complex (UniProt Q02750+Q61097, P775N)", "conditions": "HCT116 cells, 200 nM, 1 hour"}, "[5]": {"molecular_target": "T2, mouse KSR1-luc (KSR-bound MEK) (UniProt Q02750+Q61097)", "T2 construct": "expressed in transfected cells; host or cells: HEK293T", "assay": "NanoBRET in-cell steady-state competition with tram-bo on KSR1-luc", "assay_type": "cell-based"}, "[6]": {"molecular_target": "MEK1-luc (Homo sapiens, UniProt Q02750)", "assay": "NanoBRET washout / intracellular residence time on MEK1-luc", "conditions": "cells pre-treated with MEKi, washed, 1 µM tram-bo added"}, "[7]": {"tested_on": "KRAS-G12S A549 cells", "assay": "Long-term clonogenic assay", "assay_type": "cell-based, human", "conditions": "10 nM final concentration, in comparison to amide-linker compounds (eg. 1, 3)", "protocol": "Cells were plated at a density of 6,000 cells per well in 6-well plates in 3 mL of culture medium. Twenty-four hours after seeding, compounds dissolved in DMSO or DMSO-only vehicles were added directly to the culture media at a 1:1000 dilution. Following 10 days of culture, cells were washed 2x in PBS, fixed in ice-cold methanol for 10 minutes, stained with crystal-violet at room temperature for 10 minutes, and subsequently washed three times in water. Plates were allowed to dry overnight before imagining with an Epson V600 scanner."}, "[8]": {"tested_on": "phosphorylated ERK1/2 (T202/Y204)", "assay": "Immunoblot of RAS/ERK pathway inhibition", "assay_type": "cell-based, human", "conditions": "1 hour, increasing concentrations, relative to trametinib", "protocol": "Cells were plated at a density of 300,000 cells per well in 6-well plates in 2 mL of culture medium. 24 hours after seeding, cells were treated with compounds or DMSO at a 1:1000 dilution (0.1 % DMSO in final volume). […] Samples were normalized to a protein content of 5 µg/µL in 100 µL total volume, and 20 µL of 6x SDS was added. […] Transfers were confirmed using ponceau red, washed, and then blocked for 1 hour with 5% BSA TBS-T, prior to overnight incubation with primary antibodies including phospho-ERK1/2 T202/Y204 and total ERK1/2 (Cell Signaling Technologies (CST) 9101S and 4695S, respectively) in 5% BSA TBS-T. The next day, blots were washed extensively, and incubated in secondary antibody (Anti-Rabbit IgG HRP-Linked CST 7074S)."}, "[9]": {"tested_on": "MEK1, MEK2 and upstream kinases BRAF, CRAF", "assay": "In vitro kinase profiling, substrate phosphorylation assays", "assay_type": "biochemical", "conditions": "incl. BRAF and CRAF phosphorylation of MEK1 as substrate"}, "[10]": {"tested_on": "MEK1 and MEK2 (kinase panel incl. BRAF, CRAF)", "assay": "In vitro kinase profiling, direct binding assays", "conditions": "1 µM"}, "[11]": {"tested_on": "HCT116 cells", "assay": "Cell proliferation/viability assay under low-adherence conditions", "assay_type": "cell-based, human", "protocol": "A375, A549, HCT116, and SKMEL-239 cells were plated in Corning Costar Ultra-Low Attachment 96-well plates (Reference number 3434). After 24 hours of incubation at 37° C., cells were treated with inhibitors (0.1% DMSO in final volume). Cells were grown for five days, and resazurin sodium salt was added at a final concentration of 0.01 µg/µL. Fluorescence was measured using a Molecular Devices SpectraMax M5 spectrophotometer after a 4-24-hour incubation with resazurin solution. Technical triplicate values were averaged for each experiment, and biological replicate values are represented as average +/- standard deviation. For each cell line, logEC50 values of inhibitors were statistically compared using the extra sum-of-squares F test in GraphPad Prism 8 (FIGS. 57, 58, 67, 68, 69)."}, "[12]": {"conditions": "HCT116, low-adherence conditions"}}, "data": [{"smiles": "CNS(=O)(=O)Nc1nccc(Cc2c(C)c3ccc(Oc4ncccn4)cc3oc2=O)c1F", "note": "[CH5126766, reference compound]", "values": [{"measurement": "effect on BRAF pulled down via endogenous MEK1 (co-IP)", "setting": "[1]", "value": "enhances interactions between endogenous BRAF and MEK1"}]}, {"smiles": "Cc1c(=O)n(C)c(Nc2ccc(I)cc2F)c2c(=O)n(C3CC3)c(=O)n(-c3cccc(NC(=O)CCOCCOCCNC(=O)CCC4=[N+]5C(=Cc6ccc(-c7ccc[nH]7)n6[B-]5(F)F)C=C4)c3)c12", "note": "[Tram-bo]", "values": [{"measurement": "EC50", "setting": "[2]", "value": 4.7, "unit": "nM"}, {"measurement": "tighter binding on KSR1-luc and KSR2-luc relative to ARAF-luc, BRAF-luc, and CRAF-luc", "setting": "[3]", "value": "~ 10 fold"}]}, {"smiles": "O=C(c1ccc(F)c(F)c1Nc1ccc(I)cc1F)N1CC(O)([C@@H]2CCCCN2)C1", "note": "[cobimetinib]", "values": [{"measurement": "effect on complex stability of K1 (KSR1 P775N) and B2 (BRAF R662A) mutants with MEK (co-IP)", "setting": "[4]", "value": "did not alter complex stability"}, {"measurement": "IC50", "setting": "[5]; HEK293T cells, 1 µM tram-bo tracer, equilibrium binding, mean ± s.e.m., read-out: steady-state IC50 against KSR1-luc", "value": "5.1 ± 0.7", "unit": "nM"}, {"measurement": "difference in potency between KSR1-luc and MEK1-luc", "setting": "[5]; IC50 MEK1-luc vs KSR1-luc", "value": "~20", "unit": "fold"}, {"measurement": "dissociation kinetics after washout on MEK1-luc", "setting": "[6]", "value": "dissociated more readily"}]}, {"smiles": "Cc1c(=O)n(C)c(Nc2ccc(I)cc2F)c2c(=O)n(C3CC3)c(=O)n(-c3cccc(NS(=O)(=O)NC4CC4)c3)c12", "note": "[compound 5]", "values": [{"measurement": "growth inhibition in long-term clonogenic assay", "setting": "[7]", "value": "enhanced and durable growth inhibition"}]}, {"smiles": "CCN(C)S(=O)(=O)Nc1cccc(-n2c(=O)n(C3CC3)c(=O)c3c(Nc4ccc(I)cc4F)n(C)c(=O)c(C)c32)c1", "note": "[compound 6]", "values": [{"measurement": "growth inhibition in long-term clonogenic assay", "setting": "[7]", "value": "enhanced and durable growth inhibition"}]}, {"smiles": "CNS(=O)(=O)Nc1cccc(-n2c(=O)n(C3CC3)c(=O)c3c(Nc4ccc(I)cc4F)n(C)c(=O)c(C)c32)c1", "note": "[trametiglue]", "values": [{"measurement": "inhibition of RAS-MAPK signaling as measured by pERK", "setting": "[8]", "value": "higher potency inhibitor of RAS-MAPK signaling"}, {"measurement": "growth inhibition in long-term clonogenic assay", "setting": "[7]", "value": "enhanced and durable growth inhibition"}, {"measurement": "inhibition in substrate phosphorylation assays", "setting": "[9]", "value": "not only inhibited MEK1 and MEK2, but also upstream kinases"}, {"measurement": "effect on BRAF pulled down via endogenous MEK1 (co-IP)", "setting": "[1]", "value": "markedly enhanced capture of BRAF"}, {"measurement": "potency and off-rate kinetics in cellular target engagement assays", "setting": "[5]; KSR-luc or MEK-luc reporters, residence time at 6.25 nM", "value": "retained similar potency and off-rate kinetics as trametinib"}, {"measurement": "direct interaction with isolated BRAF or CRAF in binding experiments", "setting": "[10]", "value": "no direct interactions towards isolated BRAF or CRAF"}, {"measurement": "selectivity in direct binding assays", "setting": "[10]", "value": "strong selectivity towards MEK1 and MEK2"}, {"measurement": "improvement in potency relative to CH5126766", "setting": "[11]; [12]", "value": "~200", "unit": "fold"}, {"measurement": "improvement in potency relative to trametinib", "setting": "[11]; [12]", "value": "approximately 7 fold"}, {"measurement": "IC50", "setting": "[11]; low-adherence conditions, five days, resazurin, read-out: IC50 in the cell line HCT116", "value": "0.07 ± 0.04", "unit": "nM"}]}]}
